Source: ChEMBL document CHEMBL4251634, “Synthesis and antimicrobial activity of pyrimidinyl 1,3,4-oxadiazoles, 1,3,4-thiadiazoles and 1,2,4-triazoles” (2018)
Calls of active or inactive are those of the source. The rule behind the calls is not given here.

How the values were obtained:
Assay type in all cases: functional
Bacillus subtilis [1] = test: Antibacterial activity against Bacillus subtilis assessed as diameter of inhibition zone at 12.5 ug/well after 24 hrs by agar well diffusion method; conditions: for zone of inhibition at 12.5 µg/disc: read-out: DIZ
Staphylococcus aureus [2] = test: Antibacterial activity against Staphylococcus aureus after 24 hrs by turbidity-based broth dilution assay
Staphylococcus aureus [3] = test: Antibacterial activity against Staphylococcus aureus assessed as diameter of inhibition zone at 12.5 ug/well after 24 hrs by agar well diffusion method; conditions: for zone of inhibition at 12.5 µg/disc: read-out: DIZ
Pseudomonas aeruginosa [4] = test: Antibacterial activity against Pseudomonas aeruginosa assessed as diameter of inhibition zone at 12.5 ug/well after 24 hrs by agar well diffusion method; conditions: read-out: DIZ
Klebsiella pneumoniae [5] = test: Antibacterial activity against Klebsiella pneumoniae assessed as diameter of inhibition zone at 25 ug/well after 24 hrs by agar well diffusion method; conditions: read-out: DIZ
Klebsiella pneumoniae [6] = test: Antibacterial activity against Klebsiella pneumoniae assessed as diameter of inhibition zone at 50 ug/well after 24 hrs by agar well diffusion method; conditions: read-out: DIZ
Pseudomonas aeruginosa [7] = test: Antibacterial activity against Pseudomonas aeruginosa assessed as diameter of inhibition zone at 100 ug/well after 24 hrs by agar well diffusion method; conditions: read-out: DIZ
Bacillus subtilis [8] = test: Antibacterial activity against Bacillus subtilis assessed as diameter of inhibition zone at 25 ug/well after 24 hrs by agar well diffusion method; conditions: for zone of inhibition at 25 µg/disc: read-out: DIZ
Staphylococcus aureus [9] = test: Antibacterial activity against Staphylococcus aureus assessed as diameter of inhibition zone at 25 ug/well after 24 hrs by agar well diffusion method; conditions: for zone of inhibition at 25 µg/disc: read-out: DIZ
Klebsiella pneumoniae [10] = test: Antibacterial activity against Klebsiella pneumoniae after 24 hrs by turbidity-based broth dilution assay
Bacillus subtilis [11] = test: Antibacterial activity against Bacillus subtilis assessed as diameter of inhibition zone at 100 ug/well after 24 hrs by agar well diffusion method; conditions: read-out: DIZ
Klebsiella pneumoniae [12] = test: Antibacterial activity against Klebsiella pneumoniae assessed as diameter of inhibition zone at 100 ug/well after 24 hrs by agar well diffusion method; conditions: read-out: DIZ
Klebsiella pneumoniae [13] = test: Antibacterial activity against Klebsiella pneumoniae assessed as diameter of inhibition zone at 12.5 ug/well after 24 hrs by agar well diffusion method; conditions: read-out: DIZ
Staphylococcus aureus [14] = test: Antibacterial activity against Staphylococcus aureus assessed as diameter of inhibition zone at 50 ug/well after 24 hrs by agar well diffusion method; conditions: for zone of inhibition at 50 µg/disc: read-out: DIZ
Pseudomonas aeruginosa [15] = test: Antibacterial activity against Pseudomonas aeruginosa after 24 hrs by turbidity-based broth dilution assay
Bacillus subtilis [16] = test: Antibacterial activity against Bacillus subtilis assessed as diameter of inhibition zone at 50 ug/well after 24 hrs by agar well diffusion method; conditions: read-out: DIZ
Staphylococcus aureus [17] = test: Antibacterial activity against Staphylococcus aureus assessed as diameter of inhibition zone at 100 ug/well after 24 hrs by agar well diffusion method; conditions: for zone of inhibition at 100 µg/disc: read-out: DIZ
Pseudomonas aeruginosa [18] = test: Antibacterial activity against Pseudomonas aeruginosa assessed as diameter of inhibition zone at 50 ug/well after 24 hrs by agar well diffusion method; conditions: read-out: DIZ
Pseudomonas aeruginosa [19] = test: Antibacterial activity against Pseudomonas aeruginosa assessed as diameter of inhibition zone at 25 ug/well after 24 hrs by agar well diffusion method; conditions: read-out: DIZ
Penicillium chrysogenum [20] = test: Antifungal activity against Penicillium chrysogenum assessed as diameter of inhibition zone at 12.5 ug/well after 48 hrs by agar well diffusion method; conditions: for zone of inhibition at 12.5 µg/disc: read-out: DIZ
Penicillium chrysogenum [21] = test: Fungicidal activity against Penicillium chrysogenum incubated for 48 hrs followed by regrowth on PDA plates for 48 hrs
Aspergillus niger [22] = test: Antifungal activity against Aspergillus niger after 48 hrs by turbidity-based broth dilution assay
Penicillium chrysogenum [23] = test: Antifungal activity against Penicillium chrysogenum assessed as diameter of inhibition zone at 50 ug/well after 48 hrs by agar well diffusion method; conditions: read-out: DIZ
Staphylococcus aureus [24] = test: Bactericidal activity against Staphylococcus aureus incubated for 24 hrs followed by regrowth on sterile nutrient broth for 24 hrs
Bacillus subtilis [25] = test: Bactericidal activity against Bacillus subtilis incubated for 24 hrs followed by regrowth on sterile nutrient broth for 24 hrs; parameters: unit not given here
Aspergillus niger [26] = test: Fungicidal activity against Aspergillus niger incubated for 48 hrs followed by regrowth on PDA plates for 48 hrs
Pseudomonas aeruginosa [27] = test: Ratio of MBC to MIC for Pseudomonas aeruginosa
Penicillium chrysogenum [28] = test: Antifungal activity against Penicillium chrysogenum after 48 hrs by turbidity-based broth dilution assay
Aspergillus niger [29] = test: Antifungal activity against Aspergillus niger assessed as diameter of inhibition zone at 100 ug/well after 48 hrs by agar well diffusion method; conditions: read-out: DIZ
Aspergillus niger [30] = test: Antifungal activity against Aspergillus niger assessed as diameter of inhibition zone at 50 ug/well after 48 hrs by agar well diffusion method; conditions: read-out: DIZ
Penicillium chrysogenum [31] = test: Antifungal activity against Penicillium chrysogenum assessed as diameter of inhibition zone at 100 ug/well after 48 hrs by agar well diffusion method; conditions: read-out: DIZ
Klebsiella pneumoniae [32] = test: Bactericidal activity against Klebsiella pneumoniae incubated for 24 hrs followed by regrowth on sterile nutrient broth for 24 hrs
Aspergillus niger [33] = test: Antifungal activity against Aspergillus niger assessed as diameter of inhibition zone at 25 ug/well after 48 hrs by agar well diffusion method; conditions: read-out: DIZ
Penicillium chrysogenum [34] = test: Antifungal activity against Penicillium chrysogenum assessed as diameter of inhibition zone at 25 ug/well after 48 hrs by agar well diffusion method; conditions: for zone of inhibition at 25 µg/disc: read-out: DIZ
Pseudomonas aeruginosa [35] = test: Bactericidal activity against Pseudomonas aeruginosa incubated for 24 hrs followed by regrowth on sterile nutrient broth for 24 hrs
Aspergillus niger [36] = test: Antifungal activity against Aspergillus niger assessed as diameter of inhibition zone at 12.5 ug/well after 48 hrs by agar well diffusion method; conditions: read-out: DIZ

SMILES	zone of inhibition at 12.5 µg/disc (Bacillus subtilis [1])	zone of inhibition at 12.5 µg/disc (Pseudomonas aeruginosa [4])	zone of inhibition at 25 µg/disc (Klebsiella pneumoniae [5])	zone of inhibition at 50 µg/disc (Klebsiella pneumoniae [6])	zone of inhibition at 100 µg/disc (Pseudomonas aeruginosa [7])	zone of inhibition at 25 µg/disc (Bacillus subtilis [8])	zone of inhibition at 100 µg/disc (Bacillus subtilis [11])	zone of inhibition at 100 µg/disc (Klebsiella pneumoniae [12])	zone of inhibition at 12.5 µg/disc (Klebsiella pneumoniae [13])	zone of inhibition at 50 µg/disc (Bacillus subtilis [16])	zone of inhibition at 50 µg/disc (Pseudomonas aeruginosa [18])	zone of inhibition at 25 µg/disc (Pseudomonas aeruginosa [19])	zone of inhibition at 12.5 µg/disc (Penicillium chrysogenum [20])	zone of inhibition at 50 µg/disc (Penicillium chrysogenum [23])	zone of inhibition at 100 µg/disc (Aspergillus niger [29])	zone of inhibition at 50 µg/disc (Aspergillus niger [30])	zone of inhibition at 100 µg/disc (Penicillium chrysogenum [31])	zone of inhibition at 25 µg/disc (Aspergillus niger [33])	zone of inhibition at 25 µg/disc (Penicillium chrysogenum [34])	zone of inhibition at 12.5 µg/disc (Aspergillus niger [36])	also measured
O=C(N[C@H](CO)[C@H](O)c1ccc([N+](=O)[O-])cc1)C(Cl)Cl [CHLORAMPHENICOL]	32 mm	25 mm	40 mm	42 mm	32 mm	34 mm	40 mm	44 mm	38 mm	36 mm	29 mm	27 mm									MIC (Staphylococcus aureus [2]): 6.25 µg; zone of inhibition at 12.5 µg/disc (Staphylococcus aureus [3]): 30 mm; zone of inhibition at 25 µg/disc (Staphylococcus aureus [9]): 32 mm; MIC (Klebsiella pneumoniae [10]): 12.5 µg; zone of inhibition at 50 µg/disc (Staphylococcus aureus [14]): 35 mm; MIC (Pseudomonas aeruginosa [15]): 6.25 µg; zone of inhibition at 100 µg/disc (Staphylococcus aureus [17]): 37 mm
Cc1cc(SCc2nnc(-c3ccc([N+](=O)[O-])cc3)s2)nc(SCc2nnc(-c3ccc([N+](=O)[O-])cc3)s2)n1	22 mm	28 mm	33 mm	35 mm	35 mm	24 mm	31 mm	38 mm	31 mm	27 mm	33 mm	31 mm	20 mm	24 mm	35 mm	32 mm	26 mm	29 mm	22 mm	27 mm	MFC (Penicillium chrysogenum [21]): 200 µg; MIC (Staphylococcus aureus [2]): 50 µg; zone of inhibition at 12.5 µg/disc (Staphylococcus aureus [3]): 16 mm; MIC (Aspergillus niger [22]): 12.5 µg; MBC (Staphylococcus aureus [24]): 200 µg; MBC (Bacillus subtilis [25]): 100; MFC (Aspergillus niger [26]): 50 µg; Ratio (Pseudomonas aeruginosa [27]): 2; zone of inhibition at 25 µg/disc (Staphylococcus aureus [9]): 18 mm; MIC (Penicillium chrysogenum [28]): 50 µg; MIC (Klebsiella pneumoniae [10]): 12.5 µg; MBC (Klebsiella pneumoniae [32]): 50 µg; zone of inhibition at 50 µg/disc (Staphylococcus aureus [14]): 20 mm; MIC (Pseudomonas aeruginosa [15]): 6.25 µg; zone of inhibition at 100 µg/disc (Staphylococcus aureus [17]): 23 mm; MBC (Pseudomonas aeruginosa [35]): 12.5 µg
CC(=O)N1CCN(c2ccc(OCC3COC(Cn4ccnc4)(c4ccc(Cl)cc4Cl)O3)cc2)CC1 (stereo unspecified) [KETOCONAZOLE]													34 mm	37 mm	37 mm	34 mm	39 mm	31 mm	36 mm	29 mm	MIC (Aspergillus niger [22]): 6.25 µg; MIC (Penicillium chrysogenum [28]): 12.5 µg
Cc1cc(SCc2nnc(-c3ccc(Cl)cc3)o2)nc(SCc2nnc(-c3ccc(Cl)cc3)o2)n1		10 mm	11 mm	13 mm	17 mm		9 mm	16 mm	10 mm	7 mm	14 mm	12 mm	11 mm	15 mm	25 mm	22 mm	17 mm	20 mm	13 mm	18 mm	diameter of the inhibition zone (DIZ) (Bacillus subtilis [1]): inactive; diameter of the inhibition zone (DIZ) (Staphylococcus aureus [3]): inactive; diameter of the inhibition zone (DIZ) (Bacillus subtilis [8]): inactive; diameter of the inhibition zone (DIZ) (Staphylococcus aureus [9]): inactive; diameter of the inhibition zone (DIZ) (Staphylococcus aureus [14]): inactive; diameter of the inhibition zone (DIZ) (Staphylococcus aureus [17]): inactive
Cc1cc(SCc2nnc(-c3ccccc3)n2N)nc(SCc2nnc(-c3ccccc3)n2N)n1	10 mm	14 mm	19 mm	22 mm	23 mm	12 mm	17 mm	24 mm	17 mm	14 mm	19 mm	16 mm	11 mm	14 mm	24 mm	21 mm	16 mm	19 mm	12 mm	17 mm	zone of inhibition at 12.5 µg/disc (Staphylococcus aureus [3]): 8 mm; zone of inhibition at 25 µg/disc (Staphylococcus aureus [9]): 9 mm; zone of inhibition at 50 µg/disc (Staphylococcus aureus [14]): 10 mm; zone of inhibition at 100 µg/disc (Staphylococcus aureus [17]): 12 mm
Cc1cc(SCc2nnc(-c3ccccc3)s2)nc(SCc2nnc(-c3ccccc3)s2)n1	11 mm	15 mm	21 mm	23 mm	24 mm	13 mm	18 mm	26 mm	20 mm	15 mm	20 mm	19 mm	9 mm	12 mm	22 mm	19 mm	14 mm	17 mm	10 mm	15 mm	zone of inhibition at 12.5 µg/disc (Staphylococcus aureus [3]): 10 mm; zone of inhibition at 25 µg/disc (Staphylococcus aureus [9]): 11 mm; zone of inhibition at 50 µg/disc (Staphylococcus aureus [14]): 12 mm; zone of inhibition at 100 µg/disc (Staphylococcus aureus [17]): 13 mm
Cc1ccc(-c2nnc(CSc3cc(C)nc(SCc4nnc(-c5ccc(C)cc5)n4N)n3)n2N)cc1		9 mm	13 mm	15 mm	18 mm	7 mm	11 mm	18 mm	12 mm	9 mm	14 mm	11 mm		8 mm	16 mm	14 mm	10 mm	12 mm		10 mm	diameter of the inhibition zone (DIZ) (Penicillium chrysogenum [20]): inactive; diameter of the inhibition zone (DIZ) (Bacillus subtilis [1]): inactive; diameter of the inhibition zone (DIZ) (Staphylococcus aureus [3]): inactive; diameter of the inhibition zone (DIZ) (Staphylococcus aureus [9]): inactive; diameter of the inhibition zone (DIZ) (Staphylococcus aureus [14]): inactive; diameter of the inhibition zone (DIZ) (Penicillium chrysogenum [34]): inactive; diameter of the inhibition zone (DIZ) (Staphylococcus aureus [17]): inactive
